The record followed here is patent US9206191B2, “Indazoles for the treatment and prophylaxis of respiratory syncytial virus infection” (Hoffmann-La Roche Inc., priority 2012, dated 2015).

The EC50 is the midpoint of the concentration-response curve. High values mean weaker potency, low ones greater potency.

The test system of the experiment is RSV Long strain. Description: Viral Cytopathic Effect (CPE) Assay. Format: cell-based. The settings on record: human respiratory syncytial virus, 144 h, cell viability after 6 days, Cell Counting kit-8. On the technique in general: Damage to the host cells serves as the signal in cytopathic effect assays.
In turn, `CS(=O)(=O)CCCn1c(Cn2nc(S(C)(=O)=O)c3ccncc32)nc2cc(Cl)ccc21` [Example 1-11, 1-({5-Chloro-1-[3-(methylsulfonyl)propyl]-1H-benzimidazol-2-yl}methyl)-3-(methylsulfonyl)-1H-pyrazolo[3,4-c]pyridine] yielded an EC50 of 4.6 nM.
`CS(=O)(=O)c1nn(Cc2nc3cc(Cl)ccc3n2[C@H]2C[C@H](C(=O)O)C2)c2cnccc12` [Example 2-41, trans-3-(5-chloro-2-{[3-(methylsulfonyl)-1H-pyrazolo[3,4-c]pyridin-1-yl]methyl}-1H-benzimidazol-1-yl)cyclobutanecarboxylic acid] came in with an EC50 of 7 nM.
Then `CS(=O)(=O)c1nn(Cc2nc3cc(Cl)cc(F)c3n2[C@@H]2CCS(=O)(=O)C2)c2cnccc12` [Example 12, 1-({5-chloro-1-[(3R)-1,1-dioxidotetrahydrothiophen-3-yl]-7-fluoro-1H-benzimidazol-2-yl}methyl)-3-(methylsulfonyl)-1H-pyrazolo[3,4-c]pyridine], with 2 nM.
`CC(O)(CCn1c(Cn2nc(S(C)(=O)=O)c3ccncc32)nc2cc(Cl)ccc21)C(F)(F)F` (stereo not shown) [Example 14, 4-(5-chloro-2-{[3-(methylsulfonyl)-1H-pyrazolo[3,4-c]pyridin-1-yl]methyl}-1H-benzimidazol-1-yl)-1,1,1-trifluoro-2-methylbutan-2-ol] came in with an EC50 of 2.8 nM.
In the case of `CS(=O)(=O)c1nn(Cc2nc3cc(Cl)ccc3n2C2CNC(=O)C2)c2cnccc12` (stereo not shown) [Example 7, 4-(5-Chloro-2-{[3-(methylsulfonyl)-1H-pyrazolo[3,4-c]pyridin-1-yl]methyl}-1H-benzimidazol-1-yl)pyrrolidin-2-one], a half-maximal response (EC50) required 8.43 nM.
As for `CC1(CCn2c(Cn3nc(S(C)(=O)=O)c4ccncc43)nc3cc(Cl)ccc32)COC1` [Example 2-25, 1-({5-Chloro-1-[2-(3-methyloxetan-3-yl)ethyl]-1H-benzimidazol-2-yl}methyl)-3-(methylsulfonyl)-1H-pyrazolo[3,4-c]pyridine], it took 6.79 nM to reach a half-maximal effect (EC50).
Consider `CS(=O)(=O)c1nn(Cc2nc3cc(Cl)ccc3n2C2CCS(=O)(=O)C2)c2cnccc12` (stereo in doubt) [Example 2-1, 1-({5-Chloro-1-[(3R)-1,1-dioxidotetrahydrothiophen-3-yl]-1H-benzimidazol-2-yl}methyl)-3-(methylsulfonyl)-1H-pyrazolo[3,4-c]pyridine], for which the EC50 came to 8.99 nM. The EC50 values of the last two compounds are within 1.5-fold of each other.
Turning to `CS(=O)(=O)c1nn(Cc2nc3cc(Cl)cc(F)c3n2CCCC(F)(F)F)c2cnccc12` [Example 5-2, 1-{[5-Chloro-7-fluoro-1-(4,4,4-trifluorobutyl)-1H-benzimidazol-2-yl]methyl}-3-(methylsulfonyl)-1H-pyrazolo[3,4-c]pyridine], the EC50 came to 7 nM.
`CC(=O)N1CCC(n2c(Cn3nc(S(C)(=O)=O)c4ccncc43)nc3cc(Cl)ccc32)C1` (stereo not shown) [Example 2-16, 1-[3-(5-Chloro-2-{[3-(methylsulfonyl)-1H-pyrazolo[3,4-c]pyridin-1-yl]methyl}-1H-benzimidazol-1-yl)pyrrolidin-1-yl]ethanone] registered an EC50 of 16.4 nM.
Consider `CS(=O)(=O)CCCn1c(Cn2cc(S(C)(=O)=O)c3ccccc32)nc2cc(Cl)ccc21` [Example 1-2, 5-Chloro-2-{[3-(methylsulfonyl)-1H-indol-1-yl]methyl}-1-[3-(methylsulfonyl)propyl]-1H-benzimidazole], for which the EC50 was 62.5 nM.
Regarding `CS(=O)(=O)c1nn(Cc2nc3cc(Cl)ccc3n2C2CCOC2)c2ccccc12` (stereo not shown) [Example 2-8, 1-{[5-Chloro-1-(tetrahydrofuran-3-yl)-1H-benzimidazol-2-yl]methyl}-3-(methylsulfonyl)-1H-indazole], the EC50 worked out at 36.1 nM.
The compound `CS(=O)(=O)c1nn(Cc2nc3cc(Cl)ccc3n2C2CCOCC2)c2ccccc12` [Example 2-6, 1-{[5-Chloro-1-(tetrahydro-2H-pyran-4-yl)-1H-benzimidazol-2-yl]methyl}-3-(methylsulfonyl)-1H-indazole] showed an EC50 of 21.8 nM.
As to `C[C@@]1(O)CC[C@H](n2c(Cn3nc(S(C)(=O)=O)c4ccncc43)nc3cc(Cl)ccc32)C1` (relative stereo) [Example 2-43, cis-3-(5-chloro-2-{[3-(methylsulfonyl)-1H-pyrazolo[3,4-c]pyridin-1-yl]methyl}-1H-benzimidazol-1-yl)-1-methylcyclopentanol], the EC50 is 17.9 nM.
`CC(C)C(=O)N1CC[C@@H](n2c(Cn3nc(S(C)(=O)=O)c4ccncc43)nc3cc(Cl)ccc32)C1` [Example 6-4, 1-[(3R)-3-(5-Chloro-2-{[3-(methylsulfonyl)-1H-pyrazolo[3,4-c]pyridin-1-yl]methyl}-1H-benzimidazol-1-yl)pyrrolidin-1-yl]-2-methylpropan-1-one] had an EC50 of 4 nM.
Then `CS(=O)(=O)CCn1c(Cn2nc(S(C)(=O)=O)c3ccncc32)cc2cc(Cl)ccc21` [Example 9-1, 1-({5-Chloro-1-[2-(methylsulfonyl)ethyl]-1H-indol-2-yl}methyl)-3-(methylsulfonyl)-1H-pyrazolo[3,4-c]pyridine], with 3.71 nM; and `CC(=O)N1CCC(n2c(Cn3nc(S(C)(=O)=O)c4ccccc43)nc3cc(Cl)ccc32)C1` (stereo not shown) [Example 6-2, 1-[3-(5-Chloro-2-{[3-(methylsulfonyl)-1H-indazol-1-yl]methyl}-1H-benzimidazol-1-yl)pyrrolidin-1-yl]ethanone], with 8.75 nM; and `CS(=O)(=O)c1nn(Cc2nc3cc(Cl)ccc3n2C2CCC(F)(F)C2)c2cnccc12` (stereo not shown) [Example 2-10, 1-{[5-Chloro-1-(3,3-difluorocyclopentyl)-1H-benzimidazol-2-yl]methyl}-3-(methylsulfonyl)-1H-pyrazolo[3,4-c]pyridine], with 14.3 nM.
Then `CS(=O)(=O)CCCn1c(Cn2cc(S(C)(=O)=O)c3cc(F)ccc32)nc2cc(Cl)ccc21` [Example 1-3, 5-Chloro-2-{[5-fluoro-3-(methylsulfonyl)-1H-indol-1-yl]methyl}-1-[3-(methylsulfonyl)propyl]-1H-benzimidazole], with 197 nM; and `CS(=O)(=O)c1nn(Cc2nc3cc(Cl)ccc3n2C2CCN(C(=O)CN)C2)c2cnccc12` (stereo not shown) [Example 2-18, 2-Amino-1-[3-(5-chloro-2-{[3-(methylsulfonyl)-1H-pyrazolo[3,4-c]pyridin-1-yl]methyl}-1H-benzimidazol-1-yl)pyrrolidin-1-yl]ethanone], with 36 nM.
Compound `CS(=O)(=O)c1nn(Cc2nc3cc(Cl)ccc3n2CCC(O)C(F)F)c2cnccc12` (stereo not shown) [Example 2-44, 4-(5-chloro-2-{[3-(methylsulfonyl)-1H-pyrazolo[3,4-c]pyridin-1-yl]methyl}-1H-benzimidazol-1-yl)-1,1-difluorobutan-2-ol] had an EC50 of 3.3 nM.
The compound `CS(=O)(=O)c1nn(Cc2nc3cc(Cl)ccc3n2[C@H]2C[C@H](O)C2)c2cnccc12` [Example 2-32, trans-3-(5-Chloro-2-{[3-(methylsulfonyl)-1H-pyrazolo[3,4-c]pyridin-1-yl]methyl}-1H-benzimidazol-1-yl)cyclobutanol] displayed an EC50 of 3.32 nM.
With `CS(=O)(=O)CCn1c(Cn2nc(S(C)(=O)=O)c3ccccc32)nc2cc(Cl)ccc21` [Example 1-12, 1-({5-Chloro-1-[2-(methylsulfonyl)ethyl]-1H-benzimidazol-2-yl}methyl)-3-(methylsulfonyl)-1H-indazole] the figure was 26.2 nM; with `CC(C)S(=O)(=O)c1nn(Cc2nc3cc(Cl)ccc3n2CCS(C)(=O)=O)c2ccccc12` [Example 1-13, 1-({5-Chloro-1-[2-(methylsulfonyl)ethyl]-1H-benzimidazol-2-yl}methyl)-3-(propan-2-ylsulfonyl)-1H-indazole], 312 nM; with `CS(=O)(=O)c1nn(Cc2nc3cc(Cl)ccc3n2C2COC2)c2ccccc12` [Example 2-3, 1-{[5-Chloro-1-(oxetan-3-yl)-1H-benzimidazol-2-yl]methyl}-3-(methylsulfonyl)-1H-indazole], 21.8 nM.
`CS(=O)(=O)c1nn(Cc2nc3cc(Cl)ccc3n2[C@H]2CC[C@@](C)(O)CC2)c2cnccc12` [Example 2-37, cis-4-(5-chloro-2-{[3-(methylsulfonyl)-1H-pyrazolo[3,4-c]pyridin-1-yl]methyl}-1H-benzimidazol-1-yl)-1-methylcyclohexanol] registered an EC50 of 6 nM.
`C[C@H](c1nc2cc(Cl)ccc2n1CCC(F)(F)F)n1nc(S(C)(=O)=O)c2ccncc21` [Example 15-1, 1-{(1R)-1-[5-chloro-1-(3,3,3-trifluoropropyl)-1H-benzimidazol-2-yl]ethyl}-3-(methylsulfonyl)-1H-pyrazolo[3,4-c]pyridine]: the EC50 stood at 227 nM.
`CS(=O)(=O)c1nn(Cc2nc3cc(Cl)ccc3n2[C@H]2CC[C@H](O)C2)c2cnccc12` (relative stereo) [Example 2-36, trans-3-(5-chloro-2-{[3-(methylsulfonyl)-1H-pyrazolo[3,4-c]pyridin-1-yl]methyl}-1H-benzimidazol-1-yl)cyclopentanol] returned an EC50 of 2 nM.
Then `[2H]C([2H])(O)CCn1c(Cn2nc(S(C)(=O)=O)c3ccncc32)nc2cc(Cl)ccc21` [Example 13, 3-(5-chloro-2-{[3-(methylsulfonyl)-1H-pyrazolo[3,4-c]pyridin-1-yl]methyl}-1H-benzimidazol-1-yl)(1,1-^2H2)propan-1-ol], with 3 nM.
Take `CS(=O)(=O)c1nn(Cc2nc3cc(Cl)ccc3n2CCC(O)C(F)(F)F)c2cnccc12` (stereo not shown) [Example 2-42, 4-(5-chloro-2-{[3-(methylsulfonyl)-1H-pyrazolo[3,4-c]pyridin-1-yl]methyl}-1H-benzimidazol-1-yl)-1,1,1-trifluorobutan-2-ol]: the EC50 was found to be 1.6 nM.
For `CS(=O)(=O)c1nn(Cc2nc3cc(Cl)ccc3n2[C@H]2C[C@@](O)(CO)C2)c2cnccc12` [Example 2-46, trans-3-(5-chloro-2-{[3-(methylsulfonyl)-1H-pyrazolo[3,4-c]pyridin-1-yl]methyl}-1H-benzimidazol-1-yl)-1-(hydroxymethyl)cyclobutanol], a half-maximal effect (EC50) was put at 7.2 nM.
With `CS(=O)(=O)c1nn(Cc2nc3cc(Cl)ccc3n2-c2ccc(F)nc2)c2ccccc12` [Example 3-1, 1-{[5-Chloro-1-(6-fluoropyridin-3-yl)-1H-benzimidazol-2-yl]methyl}-3-(methylsulfonyl)-1H-indazole], a half-maximal effect (EC50) was put at 9.86 nM.
